Experimental data reported in ChEMBL document CHEMBL1221208, “ATP-competitive inhibitors of the mitotic kinesin KSP that function via an allosteric mechanism” (Nat Chem Biol, 2007).

Assays:
[1] = target: T1, Kinesin-like protein KIFC1 (Homo sapiens) (UniProt Q9BW19); test: Inhibition of HSET at 10 uM by puruvate kinsase-lactate dehydrogenase detection system
T1 sequence (whole entry): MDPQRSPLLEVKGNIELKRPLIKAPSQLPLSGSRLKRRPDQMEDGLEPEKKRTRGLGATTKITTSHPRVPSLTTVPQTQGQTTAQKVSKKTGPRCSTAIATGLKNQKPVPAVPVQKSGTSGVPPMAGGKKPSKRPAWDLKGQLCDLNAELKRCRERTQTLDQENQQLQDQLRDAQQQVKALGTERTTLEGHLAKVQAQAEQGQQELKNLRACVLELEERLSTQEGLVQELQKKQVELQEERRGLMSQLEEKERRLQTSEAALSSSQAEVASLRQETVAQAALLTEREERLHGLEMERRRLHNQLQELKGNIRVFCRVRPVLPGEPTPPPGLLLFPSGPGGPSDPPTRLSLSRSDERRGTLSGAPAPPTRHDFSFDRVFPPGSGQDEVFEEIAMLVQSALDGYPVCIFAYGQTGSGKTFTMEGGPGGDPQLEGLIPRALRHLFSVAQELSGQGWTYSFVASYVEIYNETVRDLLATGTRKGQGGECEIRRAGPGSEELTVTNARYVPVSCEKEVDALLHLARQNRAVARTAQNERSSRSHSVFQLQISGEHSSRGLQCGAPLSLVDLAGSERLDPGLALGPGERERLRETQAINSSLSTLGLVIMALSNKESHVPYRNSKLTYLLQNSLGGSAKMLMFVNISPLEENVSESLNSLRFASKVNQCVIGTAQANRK

[2] = target: T2, Kinesin-like protein KIF23 (Homo sapiens) (UniProt Q02241); test: Inhibition of MKLP1 at 10 uM by puruvate kinsase-lactate dehydrogenase detection system
T2 sequence (whole entry): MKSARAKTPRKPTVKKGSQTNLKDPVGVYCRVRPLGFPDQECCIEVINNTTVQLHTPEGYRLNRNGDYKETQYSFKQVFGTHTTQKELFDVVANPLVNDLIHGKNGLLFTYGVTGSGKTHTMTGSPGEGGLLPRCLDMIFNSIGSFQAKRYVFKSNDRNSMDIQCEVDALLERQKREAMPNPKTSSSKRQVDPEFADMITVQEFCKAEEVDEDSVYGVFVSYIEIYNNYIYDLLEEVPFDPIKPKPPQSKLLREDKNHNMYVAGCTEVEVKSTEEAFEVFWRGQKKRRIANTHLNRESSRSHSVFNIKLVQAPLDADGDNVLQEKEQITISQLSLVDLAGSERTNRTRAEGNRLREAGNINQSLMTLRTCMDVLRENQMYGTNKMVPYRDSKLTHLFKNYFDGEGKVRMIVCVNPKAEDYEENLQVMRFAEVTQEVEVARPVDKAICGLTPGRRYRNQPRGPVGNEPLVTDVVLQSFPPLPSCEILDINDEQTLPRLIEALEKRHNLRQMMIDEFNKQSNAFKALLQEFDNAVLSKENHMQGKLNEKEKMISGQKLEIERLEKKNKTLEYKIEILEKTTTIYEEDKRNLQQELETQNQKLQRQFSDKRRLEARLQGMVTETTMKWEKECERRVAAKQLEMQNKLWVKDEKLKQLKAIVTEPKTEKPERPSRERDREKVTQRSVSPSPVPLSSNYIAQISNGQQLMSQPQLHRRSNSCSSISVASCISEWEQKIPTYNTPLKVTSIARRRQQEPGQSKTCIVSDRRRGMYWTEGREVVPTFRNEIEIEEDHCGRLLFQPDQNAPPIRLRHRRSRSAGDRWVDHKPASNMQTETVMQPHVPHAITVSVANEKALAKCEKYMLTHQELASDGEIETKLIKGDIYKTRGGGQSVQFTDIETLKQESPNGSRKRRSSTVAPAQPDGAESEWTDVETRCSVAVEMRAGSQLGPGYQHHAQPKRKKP

[3] = target: T3, Kinesin-like protein KIF2C (Homo sapiens) (UniProt Q99661); test: Inhibition of MCAK at 10 uM by puruvate kinsase-lactate dehydrogenase detection system
T3 sequence (whole entry): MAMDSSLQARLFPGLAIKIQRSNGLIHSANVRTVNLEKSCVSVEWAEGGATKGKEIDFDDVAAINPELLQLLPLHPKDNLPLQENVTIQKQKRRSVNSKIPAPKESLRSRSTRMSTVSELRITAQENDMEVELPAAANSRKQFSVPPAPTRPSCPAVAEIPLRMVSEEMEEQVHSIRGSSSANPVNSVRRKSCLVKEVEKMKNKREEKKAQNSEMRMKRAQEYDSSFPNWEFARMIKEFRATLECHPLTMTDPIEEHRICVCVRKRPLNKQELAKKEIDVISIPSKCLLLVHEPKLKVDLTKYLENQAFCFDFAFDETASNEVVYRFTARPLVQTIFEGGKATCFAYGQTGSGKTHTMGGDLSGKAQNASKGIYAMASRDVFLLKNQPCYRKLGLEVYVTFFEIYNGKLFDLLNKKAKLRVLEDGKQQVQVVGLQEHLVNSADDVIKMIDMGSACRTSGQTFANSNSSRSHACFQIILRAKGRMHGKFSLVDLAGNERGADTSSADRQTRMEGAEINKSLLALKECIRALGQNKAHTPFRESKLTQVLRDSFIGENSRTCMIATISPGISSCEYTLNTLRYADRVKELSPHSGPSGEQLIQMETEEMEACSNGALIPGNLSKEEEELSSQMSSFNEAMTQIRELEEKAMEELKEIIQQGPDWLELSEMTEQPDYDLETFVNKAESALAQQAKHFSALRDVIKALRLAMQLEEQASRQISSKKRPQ

inhibition [1] [%]	inhibition [2] [%]	inhibition [3] [%]	SMILES
4.2	7.1	8.2	Cc1ccc(C(=O)N(CCCN)[C@@H](c2nc3cc(Cl)ccc3c(=O)n2Cc2ccccc2)C(C)C)cc1
2.6	9.4	6.9	NC(=O)Nc1ccc(-c2ccc(C(F)(F)F)cc2)cc1F
4.1	7.7	8.4	O=C1CCc2cc(-c3ccc(C(F)(F)F)cc3)ccc2N1
